Earlier results as cited in patent US7947714B2, “Piperidine glycine transporter inhibitors” (Merck, Sharp & Dohme Corp., priority 2005, dated 2011).

Experiments:
[1] = mice
[2] = system: NMDA receptor; conditions: rat; blockade of GlyT1
[3] = high doses, oral, add-on to standard neuroleptic therapy
[4] = patients suffering from schizophrenia, poorly responsive to antipsychotic drugs

Structure (SMILES): CN(CCC(Oc1ccc(-c2ccccc2)cc1)c1ccc(F)cc1)CC(=O)O (stereo not shown) [NFPS, (N-[3-(4′-fluorophenyl)-3-(4′-phenylphenoxy)propyl])sarcosine]
- effect on pre-pulse inhibition (measure of sensory gating) [1]: enhance pre-pulse inhibition
- effect on NMDA receptor activity and NMDA receptor-dependent long-term potentiation [2]: potentiates NMDA receptor activity and NMDA receptor-dependent long-term potentiation

Structure (SMILES): NCC(=O)O [glycine]
- effect on symptoms of schizophrenia [3]: improvement of the symptoms

Structure (SMILES): CNCC(=O)O [sarcosine]
- effect on positive, negative and cognitive symptoms of schizophrenia [4]: beneficial effect was observed on positive, negative and cognitive symptoms
